From patent US9102628B2, “Derivatives of pyrazole 3,5-carboxylates, their preparation and their application in therapeutics” (SANOFI, priority 2007, dated 2015) come the findings set out here.

The test addresses T1, human recombinant soluble enzyme BACE1 (Homo sapiens, UniProt P56817).
T1 construct: purchased R&D Systems 931-AS
Put plainly: Test 1: Inhibition of soluble BACE1 (synthetic substrate S-10-R, HPLC/UV detection of cleavage product). The format is biochemical. The following applies: BACE1 20 nM, substrate S-10-R 350 μM, 1 hour at 37° C., sodium acetate/acetic acid buffer pH 4.5, 10% DMSO. An excerpt:
Test 1: Inhibition of Soluble BACE1
This test uses soluble BACE1 and a synthetic substrate of BACE1.
The human recombinant soluble enzyme BACE1 is available from R&D Systems (reference 931-AS).
The synthetic peptide, made up of the amino acid sequence Ser-Glu-Val-Asn-Leu-Asp-Ala-Glu-Phe-Arg (S-10-R, available from NeoMPS, reference SP000122), is used as synthetic substrate of BACE1.
This synthetic substrate incorporates the cleavage site of BACE1 and fluorescent or chromogenic groups, so that the cleavage products can then be detected, either with UV after separation by HPLC, or by measurement of fluorescence or of optical density. In the present case, the cleavage product Asp-Ala-Glu-Phe-Arg, released during hydrolysis of S-10-R by BACE1, is quantified by UV detection [195 nm] after separation by HPLC with a gradient of acetonitrile from 2% to 100% [HP1100, Agilent; Column Atlantis dC18 (5 mm×2.1 mm; 3 μm)]. […]
The percentage inhibition of the activity of BACE1 by the compounds of the invention is determined as a function of the amount of cleavage product detected by HPLC: the smaller the amount of cleavage product detected, the greater the inhibitory activity of the compounds.
The values of IC50 are then calculated from the percentage inhibition previously determined, in relation to the concentration of the test compounds.

Molecules are shown by their SMILES.

T1 sequence (P56817 46-457 limits assumed): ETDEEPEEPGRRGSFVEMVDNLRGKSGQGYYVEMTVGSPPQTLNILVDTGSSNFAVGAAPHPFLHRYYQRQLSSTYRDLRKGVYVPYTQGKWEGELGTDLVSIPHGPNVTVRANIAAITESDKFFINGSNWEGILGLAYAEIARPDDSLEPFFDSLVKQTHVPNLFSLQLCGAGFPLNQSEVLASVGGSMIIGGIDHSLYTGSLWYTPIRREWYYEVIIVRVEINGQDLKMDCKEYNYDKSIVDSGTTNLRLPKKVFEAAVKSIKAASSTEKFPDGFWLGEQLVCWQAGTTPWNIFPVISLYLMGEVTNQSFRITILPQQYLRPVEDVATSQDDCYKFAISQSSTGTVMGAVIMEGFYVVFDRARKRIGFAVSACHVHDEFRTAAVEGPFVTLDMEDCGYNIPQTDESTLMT

As for `CCCC1CCCCN1C(=O)c1cc(C(=O)N[C@@H](Cc2cc(F)cc(F)c2)[C@H](O)CNC2(c3cccc(C(F)(F)F)c3)CC2)nn1CC` (stereo partly drawn) [compound 53, N-{(1S,2R)-1-(3,5-difluorobenzyl)-2-hydroxy-3-({1-[3-(trifluoromethyl)phenyl]cyclopropyl}amino)propyl}-1-ethyl-5-[(2-propylpiperidin-1-yl)carbonyl]-1H-pyrazole-3-carboxamide], the half-maximal inhibitory concentration (IC50) – broadly, the concentration needed to halve the response being measured – is 73 nM.
Turning to `CCN(Cc1ccccc1)NC(=O)c1cc(C(=O)N[C@@H](Cc2ccccc2)[C@H](O)CNCc2cccc(C(F)(F)F)c2)nn1CC` [compound 69, 5-[(2-benzyl-2-ethylhydrazino)carbonyl]-N-[(1S,2R)-1-benzyl-2-hydroxy-3-{[3-(trifluoromethyl)benzyl]amino}propyl]-1-ethyl-1H-pyrazole-3-carboxamide], the IC50 was 2000 nM.
